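How tested: cells in 96-well plates exposed to compound for 48 hours at five concentrations. Here, GI50 denotes the concentration required for 50% inhibition of growth.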 Calls of active or inactive are those of the source. Rule as the data show it: active = GI50 up to about 1.1 µM and inactive = higher.
Key:
Experiment in all cases: growth of human tumour cells (NCI), 48 h
[1] = test system: 786-0
[2] = test system: A549
[3] = test system: ACHN
[4] = test system: CAKI-1
[5] = test system: CCRF-CEM
[6] = test system: COLO 205
[7] = test system: DLD-1
[8] = test system: DMS-114
[9] = test system: DMS-273
[10] = test system: EKVX
[11] = test system: HCC 2998
[12] = test system: HCT-116
[13] = test system: HCT-15
[14] = test system: HOP-18
[15] = test system: HOP-62
[16] = test system: HT-29
[17] = test system: IGROV-1
[18] = test system: K562
[19] = test system: KM-20L2
[20] = test system: KM12
[21] = test system: LOX IMVI
[22] = test system: LXFL 529
[23] = test system: M14
[24] = test system: M19-MEL
[25] = test system: MOLT-4
[26] = test system: Malme-3M
[27] = test system: NCI-H226
[28] = test system: NCI-H23
[29] = test system: NCI-H460
[30] = test system: NCI-H522
[31] = test system: OVCAR-3
[32] = test system: OVCAR-4
[33] = test system: OVCAR-5
[34] = test system: OVCAR-8
[35] = test system: RPMI-8226
[36] = test system: SF-268
[37] = test system: SF-295
[38] = test system: SF-539
[39] = test system: SK-MEL-28
[40] = test system: SK-MEL-2
[41] = test system: SK-MEL-5
[42] = test system: SN12C
[43] = test system: SNB-19
[44] = test system: SNB-75
[45] = test system: SNB-78
[46] = test system: SR
[47] = test system: SW-620
[48] = test system: U-251
[49] = test system: UACC-257
[50] = test system: UACC-62
[51] = test system: UO-31
[52] = test system: XF498

`CCCCCC[C@@H]1CCC2C(CO)[C@@H](O)CC[C@@H]2C1` (some centres not stated) was tested, and the GI50 [1] was 19.3 µM (inactive), the GI50 [2] was 17.4 µM (inactive) and the GI50 [3] was 19.1 µM (inactive). For the same compound, the GI50 [4] was > 10 µM (inactive), the GI50 [5] was 23.6 µM (inactive) and the GI50 [6] was 18.5 µM (inactive). For the same compound, the GI50 [7] was 18.8 µM (inactive), the GI50 [8] was 19.6 µM (inactive) and the GI50 [9] was 20.2 µM (inactive). For the same compound, the GI50 [10] was 18.2 µM (inactive), the GI50 [11] was 22 µM (inactive) and the GI50 [12] was 17.6 µM (inactive). For the same compound, the GI50 [13] was 19 µM, the GI50 [14] was 22.4 µM (inactive) and the GI50 [15] was 18.3 µM (inactive). For the same compound, the GI50 [16] was 18.2 µM (inactive), the GI50 [17] was 18.2 µM (inactive) and the GI50 [18] was 21.3 µM (inactive). For the same compound, the GI50 [19] was 18.4 µM (inactive), the GI50 [20] was 18.7 µM (inactive) and the GI50 [21] was 19.3 µM (inactive). The GI50 [22] was 18.5 µM (inactive), the GI50 [23] was 17.5 µM (inactive) and the GI50 [24] was 18.2 µM (inactive). The GI50 [25] was 18.2 µM (inactive), the GI50 [26] was 18.8 µM (inactive) and the GI50 [27] was 20.6 µM (inactive). For the same compound, the GI50 [28] was 16 µM (inactive), the GI50 [29] was 15.5 µM (inactive) and the GI50 [30] was 16.3 µM (inactive). For the same compound, the GI50 [31] was 15.8 µM (inactive), the GI50 [32] was 16.3 µM (inactive) and the GI50 [33] was 18.5 µM (inactive). The GI50 [34] was 18.2 µM (inactive), the GI50 [35] was 25.3 µM (inactive) and the GI50 [36] was 18.1 µM (inactive). The GI50 [37] was 16.2 µM (inactive), the GI50 [38] was 18.7 µM (inactive) and the GI50 [39] was 19.6 µM (inactive). For the same compound, the GI50 [40] was 26.7 µM (inactive), the GI50 [41] was 20 µM (inactive) and the GI50 [42] was 16.6 µM (inactive). The GI50 [43] was 18.1 µM (inactive), the GI50 [44] was 22.8 µM (inactive) and the GI50 [45] was 19.2 µM (inactive). For the same compound, the GI50 [46] was 22.5 µM (inactive), the GI50 [47] was 23.1 µM (inactive) and the GI50 [48] was 18.2 µM (inactive). The GI50 [49] was 16.7 µM (inactive), the GI50 [50] was 21.3 µM (inactive) and the GI50 [51] was 20.7 µM (inactive). For the same compound, the GI50 [52] was 24.7 µM (inactive).

Reference: ChEMBL document CHEMBL1201862, “PubChem BioAssay data set” (2004)
